# Assay results: paper PMC3325260, “Label-Free Phenotypic Profiling Identified D-Luciferin as a GPR35 Agonist” (PLoS ONE, 2012)
# Like-named read-outs stand apart in the source and are kept apart here.
# How the values were obtained:
# [1] = biological target: T1, endogenous GPR35 in HT-29 cells (Homo sapiens, UniProt Q9HC97)
# Protocol: All data represent mean ± s.d. from 2 independent measurements, each in duplicate (n = 4).
# (§1) All DMR assays were performed using Epic® system (Corning Inc.). Epic® is a wavelength interrogation reader system tailored for resonant waveguide grating biosensors in microtiter plates. This system consists of a temperature-control unit (26°C), an optical detection unit, and an on-board liquid handling unit with robotics. The detection unit is centered on integrated fiber optics, and enables kinetic measures of cellular responses with a time interval of ∼15 sec. Cells were directly seeded in Epic® plates and cultured overnight to form confluent monolayer in the cell culture medium. The cell seeding density was 32, 000 cells per well, unless specifically mentioned. After being washed twice, the cells were maintained with HBSS (1× Hanks balanced salte buffer, 10 mM Hepes-KOH, pH 7.1) and further incubated inside the system for 1 hr. […] The assay vehicle containing equal amount of DMSO (dimethyl sulfoxide) was used as a control. All ligand-induced DMR were background corrected.
# [2] = biological target: T1, endogenous GPR35 in HT-29 cells; assay: cell-based
# Protocol: as §1
# [3] = biological target: T2, human GPR35 in Tango GPR35-bla U2OS cells (Homo sapiens, UniProt Q9HC97)
# [4] = biological target: T1, endogenous GPR35 in HT-29 cells; details: 32 µM, 1 hr
# Source text: Representative images obtained from 2 independent measurements were used.
# [5] = test system: ERK1/2 phosphorylation in HT-29 cells; assay: ERK phosphorylation, Western blot; format: cell-based, human; details: for effect on the D-luciferin-induced ERK phosphorylation: 5 min after 32 µM D-luciferin, antagonist at different doses
# Source text: Since ligand-directed functional selectivity or biased agonism is quite common to many, if not all, GPCRs, we next examined the activity of D-luciferin using ERK phosphorylation, receptor internalization and Tango β-arrestin translocation assays. ERK phosphorylation is a hallmark of the activation and signaling of many GPCRs including GPR35 [20].
# The phosphorylated ERK and total ERK were blotted, and actin was used as control. Representative images obtained from 2 independent measurements were used.
# The p44/42 MAP kinases were examined using Western blotting. Whole cell lysates were collected after the cells were treated with a compound or DMSO for 1 hr. Equivalent gel loading was confirmed by probing with anti-actin body. The total ERK1/2 and phosphorylated ERK1/2 were blotted using respective antibodies.
# [6] = test system: purified luciferase enzyme; details: binding to purified luciferase enzyme; cited from earlier work
# [7] = biological target: T1, endogenous GPR35 in HT-29 cells; assay: DMR agonist assay in native HT-29 cells; format: cell-based; parameters: endogenous in cells; host or cells: HT-29; details: for maximal P-DMR amplitude: HT-29 cells, picometer shift of resonant wavelength, n = 36; for DMR response of the compound alone: HT-29, up to 64 µM
# Source text: First, multiple DMR assays were employed to characterize the pharmacology of D-luciferin in HT-29 cells, a native cell line endogenously expressing GPR35 [18]. […] Second, D-luciferin-induced internalization of endogenous GPR35 in HT-29 cells was examined. Third, D-luciferin-induced ERK phosphorylation in the absence and presence of GPR35 antagonists was examined in HT-29 cells. Fourth, Tango β-arrestin translocation assay was finally employed to examine the agonism of D-luciferin to cause β-arrestin translocation in an engineered cell line.
# as §1
# [8] = biological target: T2, human GPR35 in Tango GPR35-bla U2OS cells; assay: cell-based; details: read-out: maximal response relative to the zaprinast maximal response
# [9] = biological target: T1, endogenous GPR35 in HT-29 cells; assay: DMR antagonist assay (antagonist pre-treatment, then agonist); format: cell-based; parameters: endogenous in cells; host or cells: HT-29; details: for IC50: 5 min pre-stimulation with antagonist, then D-luciferin at 32 µM, n = 4, read-out: apparent IC50 of blocking the DMR induced by D-luciferin
# Protocol: as §1, with “Epic®” for “All DMR assays were performed using Epic® system (Corning Inc.). Epic®”
# [10] = biological target: T1, endogenous GPR35 in HT-29 cells; parameters: endogenous in cells; host or cells: HT-29; method as in PMID 21950657; details: cited from earlier work
# [11] = biological target: T1, endogenous GPR35 in HT-29 cells; parameters: endogenous in cells; host or cells: HT-29; method as in PMID 21950657; details: up to 64 µM; cited from earlier work
# T2 sequence (Q9HC97 whole entry): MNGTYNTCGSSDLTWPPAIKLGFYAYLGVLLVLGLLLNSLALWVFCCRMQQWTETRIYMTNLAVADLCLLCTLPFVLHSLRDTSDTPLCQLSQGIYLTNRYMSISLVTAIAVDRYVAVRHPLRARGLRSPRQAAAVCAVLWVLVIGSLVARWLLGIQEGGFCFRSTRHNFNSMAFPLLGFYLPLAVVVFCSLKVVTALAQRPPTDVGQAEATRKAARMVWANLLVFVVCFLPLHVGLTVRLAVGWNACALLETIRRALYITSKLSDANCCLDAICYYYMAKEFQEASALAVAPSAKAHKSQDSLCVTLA
# T1 sequence (Q9HC97 whole entry): as above
structure (smiles),measurement,setting,value
"O=C(O)[C@H]1CSC(c2nc3ccc(O)cc3s2)=N1 [D-luciferin, (S)-2-(6′-hydroxy-2′-benzothiazolyl)thiazoline-4-carboxylic acid]",effect on the potency of pamoic acid in DMR co-stimulation,"[1]; D-luciferin at different fixed doses, up to 50 µM",did not alter the potency
same,effect on DMR of pamoic acid at 200 nM (saturating concentration),[1]; high doses of D-luciferin,reduced the DMR in a dose-dependent manner
same,IC50,[2],6.8 ± 0.7 µM
same,"effect on the maximal response of zaprinast, Tango co-stimulation",[3]; 100 µM D-luciferin,only slightly suppressed
same,"effect on the maximal response of zaprinast, Tango co-stimulation",[3]; 1 mM D-luciferin,suppressed the maximal response
same,"effect on the potency of zaprinast, Tango co-stimulation",[3]; D-luciferin at 100 µM and 1 mM,little impact
same,internalization of endogenous GPR35,[4],remarked internalization
same,time of maximum ERK phosphorylation after stimulation,[5]; 32 µM D-luciferin,2 min
same,ERK phosphorylation,[5]; 32 µM D-luciferin for different times,led to phosphorylation of ERK in a time-dependent manner
same,Km,[6],16 µM
same,maximal P-DMR amplitude,[7],198±12 pm
same,Emax,[8],20%
CC(/C=C1\SC(=S)N(CCCC(=O)Nc2ccc(C(=O)O)c(O)c2)C1=O)=C\c1ccccc1 [ML145],effect on the D-luciferin-induced ERK phosphorylation,[5],dose-dependently attenuated
COC(=O)c1cnn(-c2ccc(F)cc2F)c1/C=N/NC(N)=S [SPB05140],DMR response of the compound alone,[7],little response
same,IC50,[9],5 ± 0.9 µM
"COC(=O)c1cnn(-c2ccc(F)cc2F)c1C=NNC(=S)NC(C)(C)C [SPB05142, methyl-5-[(tert-butylcarbamothioylhydrazinylidene)-methyl]-1-(2,4-difluorophenyl)-pyrazole-4-carboxylate]",ERK phosphorylation by compound alone,[5]; 25 µM,weak but detectable ERK phosphorylation
same,effect on the D-luciferin-induced ERK phosphorylation,[5],dose-dependently attenuated
same,blockade of the DMR induced by zaprinast,[10],almost completely blocked
same,IC50,[9],1.5 ± 0.2 µM
same,D-luciferin DMR in presence of antagonist at the two highest doses,"[9]; SPB05142 at 16 and 32 µM, D-luciferin 32 µM",small but detectable negative DMR signal
same,DMR response of the compound alone,[11],did not lead to any detectable DMR
COC(=O)c1cnn(-c2ccc(F)cc2F)c1/C=N/NC(=S)Nc1ccccc1 [SPB05143],DMR response of the compound alone,[7],little response
same,IC50,[9],2.6 ± 0.3 µM
Cc1c(C(=O)O)sc2c(Br)csc12 [YE210],ERK phosphorylation,"[5]; 1 µM, 30 min after treatment",led to ERK phosphorylation
O=C(O)c1cc2ccccc2c(Cc2c(O)c(C(=O)O)cc3ccccc23)c1O [pamoic acid],ERK phosphorylation,"[5]; 1 µM, 30 min after treatment",much lower ERK phosphorylation
CCCOc1ccccc1-c1nc2nn[nH]c2c(=O)[nH]1 [zaprinast],ERK phosphorylation,"[5]; 1 µM, 30 min after treatment",led to ERK phosphorylation
same,maximal P-DMR amplitude,[7],276±17 pm
